Source: patent publication US20080070971A1, “Medical Use of Bilirubin and its Structural Analogues” (priority 2006, published 2008)
pIC50, pKi: −log10 of the molar value. Like-named read-outs stand apart in the source and are kept apart here.

Assays:
[1] = molecular target: T1, UDPGT1A1 (Homo sapiens, UniProt P22309); assay: Inhibition of bilirubin glucuronidation by UDPGT; assay type: biochemical
T1 construct: purchased SigmaAldrich U7254
T1 sequence (P22309 26-533): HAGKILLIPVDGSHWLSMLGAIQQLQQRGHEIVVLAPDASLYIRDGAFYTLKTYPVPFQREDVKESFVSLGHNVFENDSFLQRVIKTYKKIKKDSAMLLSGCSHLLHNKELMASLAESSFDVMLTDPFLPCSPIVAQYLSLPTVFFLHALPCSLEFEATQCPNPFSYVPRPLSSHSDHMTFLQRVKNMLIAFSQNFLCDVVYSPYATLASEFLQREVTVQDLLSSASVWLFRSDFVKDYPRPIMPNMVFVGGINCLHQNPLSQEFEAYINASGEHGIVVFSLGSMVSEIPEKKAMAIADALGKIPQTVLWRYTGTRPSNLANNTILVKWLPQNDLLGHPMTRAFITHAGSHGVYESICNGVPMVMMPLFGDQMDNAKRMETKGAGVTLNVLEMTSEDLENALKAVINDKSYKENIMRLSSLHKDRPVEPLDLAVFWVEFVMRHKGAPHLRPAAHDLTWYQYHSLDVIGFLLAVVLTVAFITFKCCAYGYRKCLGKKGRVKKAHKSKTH
Source text: UDP-glucuronosyltransferase 1A1 isozenzyme (Cat. #U7254), uridine-5′-diphosphoglucuronic acid (UDPGA, #U5625), bilirubin (B), naringenin (N5893), octyl gallate (#48700) and quercetin (Q0125) were purchased from SigmaAldrich (St. Louis, Mo.). Bilirubin dimethyl ester (#B612-9), biliverdin dimethyl ester (#B610-9), biliverdin hydrocholoride (#B655-9), mesobilirubin (#M588-9), urobilin hydrochloride (#U590-1), and stercobilin hydrochloride (#S594-9) were purchased from Frontier Scientific Inc. (Logan, Utah).
The enzyme activity assay method was based on those of Adlard and Lathe (Biochem. J., 1970, 119:437-445). Incubation mixtures (total vol. 1.25 ml, pH 7.9) were prepared in tubes kept in ice and had the following composition: bilirubin (0.1 mM), UDP-glucuronic acid (0.25 mM), serum (5.8%, v/v), Mg2+ (5.0 mM), microsomal preparation (0.5-1.5 mg of protein), 10 mM tris-0.14 M KCl (pH 8.0), and 10% (v/v) dimethylsulphoxide. Incubation (10 min, 37° C.) was carried out with shaking (100 cycles/min). After incubation, tubes were placed in ice-water (5 min) and direct-reacting bilirubin was determined. All incubations were done in duplicate. Enzyme activity was expressed as μg of bilirubin conjugated/h per mg of protein. Differences from controls of more than 10% were regarded as significant.

[2] = molecular target: T2, HMG-CoA reductase (Homo sapiens, UniProt P04035); assay: HMG-CoA reductase assay in liver microsomes; assay type: biochemical; details: moderately high concentrations; 30 mg/L (FIG. 6)
T2 construct: from tissue; host or cells: liver microsomes
T2 sequence (P04035 1-888): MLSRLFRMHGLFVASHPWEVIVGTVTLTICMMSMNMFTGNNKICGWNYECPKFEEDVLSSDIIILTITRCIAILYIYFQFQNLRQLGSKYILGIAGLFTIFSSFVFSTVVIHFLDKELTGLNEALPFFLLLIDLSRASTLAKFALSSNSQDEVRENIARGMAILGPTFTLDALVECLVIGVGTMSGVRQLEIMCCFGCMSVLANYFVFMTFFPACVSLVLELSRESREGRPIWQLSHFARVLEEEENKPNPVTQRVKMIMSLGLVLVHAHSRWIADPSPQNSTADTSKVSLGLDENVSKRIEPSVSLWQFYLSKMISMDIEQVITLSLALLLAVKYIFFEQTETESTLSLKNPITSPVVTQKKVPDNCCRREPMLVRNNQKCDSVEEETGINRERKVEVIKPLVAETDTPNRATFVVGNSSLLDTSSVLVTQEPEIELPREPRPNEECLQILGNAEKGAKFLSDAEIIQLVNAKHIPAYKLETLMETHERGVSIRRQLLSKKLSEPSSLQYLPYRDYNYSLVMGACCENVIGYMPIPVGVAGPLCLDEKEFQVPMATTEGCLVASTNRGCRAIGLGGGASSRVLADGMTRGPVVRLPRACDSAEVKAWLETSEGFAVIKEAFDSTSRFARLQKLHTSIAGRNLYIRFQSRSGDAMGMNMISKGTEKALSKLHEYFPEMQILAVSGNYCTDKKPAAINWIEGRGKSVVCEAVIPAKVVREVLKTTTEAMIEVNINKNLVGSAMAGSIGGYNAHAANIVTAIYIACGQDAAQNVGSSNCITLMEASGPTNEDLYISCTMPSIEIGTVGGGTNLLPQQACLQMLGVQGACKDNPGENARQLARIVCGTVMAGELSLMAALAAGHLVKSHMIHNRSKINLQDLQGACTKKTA
Protocol: Liver microsomes, which are used to investigate cholesterol metabolism, were prepared as follows. Liver was homogenized in 50 mM Tris HCl buffer (pH 7.4), containing 0.3 M sucrose, 10 mM DTT, and 10 mM EDTA. The homogenate was centrifuged at 20,000×g for 15 min, and the supernatant was centrifuged at 100,000×g for 60 min. The resulting microsomal fraction was suspended in 3 ml of 0.1 M potassium phosphate buffer (pH 7.4), containing 1 mM EDTA and 5 mM DTT. Aliquots were immediately frozen in liquid nitrogen and stored at −20° C. until analysis.
Assay of HMG-CoA reductase. Microsomal suspensions of […], containing 5 mg protein, were preincubated for 5 min at 37° C. with […] of 0.1 M potassium phosphate buffer (pH 7.4), containing 1 mM EDTA and 12 mM glucose-6-phosphate. The assay was initiated by adding […] of cofactor-substrate solution (0.1 mM HMG-CoA, 3 mM MADPH, and 2 U/ml glucose-6-phosphate dehydrogenase). The incubation was performed at 37+ C. for 30 min and was terminated by the addition of […] of 1 M MaOH. After lactonization, the mevalonolactone was separated by thin layer chromatography. The eluate, which contained mevalonolactone, was collected in a scintillation vial. The radioactivity was then counted in a Packard 3320 scintillation spectrometer.

[3] = system: cyclooxygenase (COX); assay: Cyclooxygenase (COX) inhibition; assay type: biochemical, human; details: concentration of 10 mg/L (FIG. 4)
Protocol: The activity of COX was determined by the procedure described in Assay Design's Enzyme Immunometric Assay (EIA) kit (Assay Design Inc., TiterZyme EIA cat.#900-094). Briefly, the kit uses a monoclonal antibody to human COX-II immobilized on a microtiter plate to bind the human COX in the standard or sample. After a short incubation the excess standard or sample is washed out and a rabbit polyclonal antibody to human COX labeled with the enzyme. Horseradish peroxidase is added. This labeled antibody binds to the human COX captured on the plate. After a short incubation the excess labeled antibody is washed out and substrate is added. The substrate reacts with the labeled antibody bound to the human COX captured on the plate. After a short incubation, the enzyme reaction is stopped and the color generated is read at 450 nm. The measured optical density is directly proportional to the concentration of human COX.
Purified cyclooxygenases (COX) were obtained from Kayman Chemical Company and used to examine the inhibitory effect of bilirubin with arachidonic acid as the substrate. High purity of bilirubin (SigmaAldrich #B4126), biliverdin (Frontier Scientific Inc., Cat. B655-9) and hemin (SigmaAldrich, #51280) were used as received.

[4] = Table 4, bilirubin 0.1 mM as substrate, read-out: Apparent Ki
[5] = read-out: inhibition constant (Ki)

C=CC1=C(C)/C(=C/c2[nH]c(Cc3[nH]c(/C=C4\NC(=O)C(C=C)=C4C)c(C)c3CCC(=O)O)c(CCC(=O)O)c2C)NC1=O [Bilirubin IIIα]
pKi [1, 4]: 5.82

C=CC1=C(C)/C(=C/C2=NC(=C/c3[nH]c(/C=C4\NC(=O)C(C)=C4C=C)c(C)c3CCC(=O)O)/C(CCC(=O)O)=C2C)NC1=O [biliverdin, 2,7,13,17-tetramethyl-1,19-dioxo-3,18-divinyl-1,19,22,24-tetrahydro-21H-biline-8,12-dipropanoic acid]
inhibition of HMG-CoA reductase activity (comparison) [2]: strongly inhibit
pKi [1, 4]: 4.70

(±)-2,3-Dihydro-5,7-dihydroxy-2-(4-hydroxyphenyl)-4H-1-benzopyran-4-one; 4′,5,7-Trihydroxyflavanone [Naringenin]
pKi [1, 4]: 5.32
pKi [1, 5]: 5.30
pIC50 ([1]; under the testing conditions): ~4.80

CCCCCCCCOC(=O)c1cc(O)c(O)c(O)c1 [Octyl gallate ester]
pKi [1, 4]: 5.12

C=CC1=C(C)C(=O)N/C1=C\c1[nH]c(Cc2[nH]c(/C=C3\NC(=O)C(C)=C3C=C)c(C)c2CCC(=O)O)c(CCC(=O)O)c1C [Bilirubin XIIIα]
pKi [1, 4]: 5.77

hemin
reducing COX activity (comparison) [3]: effective in reducing COX activity

C=CC1=C(C)C(OC)N/C1=C\c1[nH]c(Cc2[nH]c(/C=C3\NC(OC)C(C=C)=C3C)c(C)c2CCC(=O)O)c(CCC(=O)O)c1C (stereo not shown) [DimethoxybilirubinIXα]
pKi [1, 4]: 5.89
pKi [1, 5]: ~6.00

CCC1=C(C)/C(=C/c2[nH]c(Cc3[nH]c(/C=C4\NC(=O)C(C)=C4CC)c(C)c3CCC(=O)O)c(CCC(=O)O)c2C)NC1=O [Mesobilirubin IXα, 3,18-diethyl-2,7,13,17-tetramethyl-1,19-dioxo-1,19,22,24-tetrahydro-21H-biline-8,12-dipropanoic acid]
pKi [1, 4]: 5.64

C=CC1=C(C)c2cc3[n-]c(cc4[n-]c(cc5nc(cc1n2)C(C)=C5C=C)c(C)c4CCC(=O)O)c(CCC(=O)O)c3C.O.[Fe+2] [Hematin, reference compound]
inhibition of HMG-CoA reductase activity (comparison) [2]: strongly inhibit
